# Experiments:
# [1] = Oxygen scavenging efficacy (real-time orbisphere oxygen sensor); conditions: 500 ppm
# Description: Oxygen scavenging efficacy was evaluated using a real-time orbisphere oxygen sensor with data logging. The test equipment consisted of a stirrer plate and stirrer bar, a 1 liter test cell, circulation pump, flow chamber, oxygen sensor and data logger. Test work was performed using potable water taken from the mains water supply in The Woodlands, Tex. and then using filtered seawater taken from Galveston, Tex. Testing was performed at 4° C. and 25° C. by wrapping the test cell with a monoethylene glycol circulator chiller jacket. A carbon steel stirrer bar was added to the test cell to replicate turbulence that would be created upon pumping the hydrotest fluid using the metallurgy of a typical pipeline. A non-pulsing circulation pump was set to circulate the test fluid past the oxygen sensor at a rate of 10 mL·min^−1. The oxygen sensor was calibrated prior to every new test run. Each test was run for a duration of 60 minutes with a 10 minute stabilization period prior to the introduction of test chemical. Chemical was injected into the test cell by means of a needle and syringe through a rubber stopper to minimize any oxygen ingress during this stage of the test. Throughout the test, oxygen levels were measured once every minute and the data continuously logged.
# All tests of the new formulations (detailed in Table 1) were benchmarked against has 50% ADMAC (specifically […]), 30% ammonium bisulfite and 20% water, herein referenced as Formulation 3 and detailed in Table 1. Furthermore ammonium bisulfite was used as a benchmark and the activity matched up to 30% which is the concentration used in all the formulations. Therefore all testing had the same concentration of oxygen scavenging component with the only variable being the other components of the formulation.
# It should be noted that all testing was performed so that the concentration of oxygen scavenger was exactly the same in all tests so the only variables were the counter components in the formulations, this isolating the effects that combining components has upon the oxygen scavenging efficacy of the invented products. Therefore all formulations were added at 500 ppm. […] Furthermore, adding a dye into the formulation as well as the DDAC and DDABC, as is the case with Formulation 1, has no further negative effects on oxygen scavenging efficacy. It should be noted that scavenging in relatively warm seawater is not a very challenging environment to perform this testing in.
# [2] = tested on: Sulfate Reducing Bacteria (SRB); assay: Most Probable Number (MPN) bacterial kill efficacy, SRB; format: cell-based, mixed consortia isolated from seawater; conditions: first MPN set; for SRB per mL: formulation with ammonium bisulfide, 500 ppm active biocide; for log reduction of planktonic SRB: exposure time of 24 hours
# Description: (§1) The Most Probably Number technique using a bacterial enumeration technique was performed, as described in NACE International Standard TMP 194-2004. Complex mixed consortia were isolated from seawater and subjected to the chemicals being tested. All chemicals were applied at the same active concentration. Surviving cells were assayed after exposure periods of 1, 7 and 28 days to the numbers compared with a control which received no treatments. The bottle tests were carried out using two mixed consortia—Sulfate Reducing Bacteria (SRB) and General Heterotrophic Bacteria (GHB) that also measured Acid Producing Bacteria (APB) enriched from seawater. Aliquots of the water (1 mL) were inoculated into SRB culture medium and GHB culture medium (Phenol Red Dextrose broth) respectively and sub-cultured twice. The cultures used in the tests were incubated at 30° C. for five days; these were then used to supplement seawater to achieve 10^3 to 10^4 SRB cells per mL. For the trial one control bottle and four test bottles were set up. The chemicals were added to the appropriate test bottles to give the final concentrations of each product as supplied. All chemicals were added so that 500 ppm of active biocide was present in each test. The control bottle contained seawater only with no added chemical.
# (§2) At each time point, (one, seven and twenty-eight days), a sample was removed from each test bottle and the control bottle and used to inoculate the MPN vials. Bacterial counts were performed using the triplicate Most Probable Number method (triplicate MPNs). The inoculated MPN vials were incubated at 30° C. for 7 days for GHB and APB and 28 days for SRB. Results have been reported as cells per mL. […]
# [3] = tested on: Acid Producing Bacteria (APB); assay: Most Probable Number (MPN) bacterial kill efficacy, APB; format: cell-based, mixed consortia isolated from seawater; conditions: first MPN set; for APB per mL: formulation with ammonium bisulfide, 500 ppm active biocide; for log reduction of APB numbers: exposure time of 24 hours
# Description: as §1, §2
# [4] = tested on: General Heterotrophic Bacteria (GHB); assay: Most Probable Number (MPN) bacterial kill efficacy, GHB; format: cell-based, mixed consortia isolated from seawater; conditions: first MPN set; for GHB per mL: formulation with ammonium bisulfide, 500 ppm active biocide; for log reduction of planktonic GHB: exposure time of 24 hours
# Description: as §1, §2
smiles,measurement,setting,value
"N.O=S(O)O [ABS 30%, ammonium bisulfite]",Oxygen level (ppm O2),"[1]; fresh water, 25° C., time 0 minutes (stabilization before chemical injection)",8.314 ppm O2
same,Oxygen level (ppm O2),"[1]; fresh water, 25° C., time 2 minutes (stabilization before chemical injection)",8.346 ppm O2
same,Oxygen level (ppm O2),"[1]; fresh water, 25° C., time 4 minutes (stabilization before chemical injection)",8.310 ppm O2
same,Oxygen level (ppm O2),"[1]; fresh water, 25° C., time 6 minutes (stabilization before chemical injection)",8.265 ppm O2
same,Oxygen level (ppm O2),"[1]; fresh water, 25° C., time 8 minutes (stabilization before chemical injection)",8.345 ppm O2
same,Oxygen level (ppm O2),"[1]; fresh water, 25° C., time 10 minutes (end of 10 minute stabilization)",8.302 ppm O2
same,Oxygen level (ppm O2),"[1]; fresh water, 25° C., time 12 minutes",7.612 ppm O2
same,Oxygen level (ppm O2),"[1]; fresh water, 25° C., time 14 minutes",6.674 ppm O2
same,Oxygen level (ppm O2),"[1]; fresh water, 25° C., time 16 minutes",5.585 ppm O2
same,Oxygen level (ppm O2),"[1]; fresh water, 25° C., time 18 minutes",4.732 ppm O2
same,Oxygen level (ppm O2),"[1]; fresh water, 25° C., time 20 minutes",4.115 ppm O2
same,Oxygen level (ppm O2),"[1]; fresh water, 25° C., time 22 minutes",3.765 ppm O2
same,Oxygen level (ppm O2),"[1]; fresh water, 25° C., time 24 minutes",3.195 ppm O2
same,Oxygen level (ppm O2),"[1]; fresh water, 25° C., time 26 minutes",3.027 ppm O2
same,Oxygen level (ppm O2),"[1]; fresh water, 25° C., time 28 minutes",2.546 ppm O2
same,Oxygen level (ppm O2),"[1]; fresh water, 25° C., time 30 minutes",1.863 ppm O2
same,Oxygen level (ppm O2),"[1]; fresh water, 25° C., time 32 minutes",1.516 ppm O2
same,Oxygen level (ppm O2),"[1]; fresh water, 25° C., time 34 minutes",1.173 ppm O2
same,Oxygen level (ppm O2),"[1]; fresh water, 25° C., time 36 minutes",0.857 ppm O2
same,Oxygen level (ppm O2),"[1]; fresh water, 25° C., time 38 minutes",0.654 ppm O2
same,Oxygen level (ppm O2),"[1]; fresh water, 25° C., time 40 minutes",0.436 ppm O2
same,Oxygen level (ppm O2),"[1]; fresh water, 25° C., time 42 minutes",0.349 ppm O2
same,Oxygen level (ppm O2),"[1]; fresh water, 25° C., time 44 minutes",0.215 ppm O2
same,Oxygen level (ppm O2),"[1]; fresh water, 25° C., time 46 minutes",0.134 ppm O2
same,Oxygen level (ppm O2),"[1]; fresh water, 25° C., time 48 minutes",0.119 ppm O2
same,Oxygen level (ppm O2),"[1]; fresh water, 25° C., time 50 minutes",0.096 ppm O2
same,Oxygen level (ppm O2),"[1]; fresh water, 25° C., time 52 minutes",0.087 ppm O2
same,Oxygen level (ppm O2),"[1]; fresh water, 25° C., time 54 minutes",0.063 ppm O2
same,Oxygen level (ppm O2),"[1]; fresh water, 25° C., time 56 minutes",0.055 ppm O2
same,Oxygen level (ppm O2),"[1]; fresh water, 25° C., time 58 minutes",0.050 ppm O2
same,Oxygen level (ppm O2),"[1]; fresh water, 25° C., time 60 minutes",0.480 ppm O2
same,Oxygen level (ppm O2),"[1]; seawater, 4° C., time 0 minutes (stabilization before chemical injection)",7.554 ppm O2
same,Oxygen level (ppm O2),"[1]; seawater, 4° C., time 2 minutes (stabilization before chemical injection)",7.452 ppm O2
same,Oxygen level (ppm O2),"[1]; seawater, 4° C., time 4 minutes (stabilization before chemical injection)",7.357 ppm O2
same,Oxygen level (ppm O2),"[1]; seawater, 4° C., time 6 minutes (stabilization before chemical injection)",7.268 ppm O2
same,Oxygen level (ppm O2),"[1]; seawater, 4° C., time 8 minutes (stabilization before chemical injection)",7.121 ppm O2
same,Oxygen level (ppm O2),"[1]; seawater, 4° C., time 10 minutes (end of 10 minute stabilization)",6.997 ppm O2
same,Oxygen level (ppm O2),"[1]; seawater, 4° C., time 12 minutes",2.125 ppm O2
same,Oxygen level (ppm O2),"[1]; seawater, 4° C., time 14 minutes",0.454 ppm O2
same,Oxygen level (ppm O2),"[1]; seawater, 4° C., time 16 minutes",0.269 ppm O2
same,Oxygen level (ppm O2),"[1]; seawater, 4° C., time 18 minutes",0.064 ppm O2
same,Oxygen level (ppm O2),"[1]; seawater, 4° C., time 20 minutes",0.047 ppm O2
same,Oxygen level (ppm O2),"[1]; seawater, 4° C., time 22 minutes",0.029 ppm O2
same,Oxygen level (ppm O2),"[1]; seawater, 4° C., time 24 minutes",0.009 ppm O2
same,Oxygen level (ppm O2),"[1]; seawater, 4° C., time 26 minutes",0.003 ppm O2
same,Oxygen level (ppm O2),"[1]; seawater, 4° C., time 28 minutes",0.002 ppm O2
same,Oxygen level (ppm O2),"[1]; seawater, 25° C., time 0 minutes (stabilization before chemical injection)",7.112 ppm O2
same,Oxygen level (ppm O2),"[1]; seawater, 25° C., time 2 minutes (stabilization before chemical injection)",7.081 ppm O2
same,Oxygen level (ppm O2),"[1]; seawater, 25° C., time 4 minutes (stabilization before chemical injection)",7.029 ppm O2
same,Oxygen level (ppm O2),"[1]; seawater, 25° C., time 6 minutes (stabilization before chemical injection)",7.084 ppm O2
same,Oxygen level (ppm O2),"[1]; seawater, 25° C., time 8 minutes (stabilization before chemical injection)",7.066 ppm O2
same,Oxygen level (ppm O2),"[1]; seawater, 25° C., time 10 minutes (end of 10 minute stabilization)",7.061 ppm O2
same,Oxygen level (ppm O2),"[1]; seawater, 25° C., time 12 minutes",0.052 ppm O2
same,Oxygen level (ppm O2),"[1]; seawater, 25° C., time 14 minutes",0.013 ppm O2
same,Oxygen level (ppm O2),"[1]; seawater, 25° C., time 16 minutes",0.010 ppm O2
same,Oxygen level (ppm O2),"[1]; seawater, 25° C., time 18 minutes",0.009 ppm O2
same,Oxygen level (ppm O2),"[1]; seawater, 25° C., time 20 minutes",0.008 ppm O2
same,Oxygen level (ppm O2),"[1]; seawater, 25° C., time 22 minutes",0.007 ppm O2
same,Oxygen level (ppm O2),"[1]; seawater, 25° C., time 24 minutes",0.006 ppm O2
same,Oxygen level (ppm O2),"[1]; seawater, 25° C., time 26 minutes",0.005 ppm O2
same,Oxygen level (ppm O2),"[1]; seawater, 25° C., time 28 minutes",0.004 ppm O2
"CN1CSC(=S)N(C)C1 [Dazomat, Tetrahydro-3,5-dimethyl-2H-1,3,5-thiadiazine-2-thione]",SRB per mL,[2]; 24 h exposure,2.5E+04 cells per mL
same,SRB per mL,[2]; 7 d exposure,2.0E+02 cells per mL
same,SRB per mL,[2]; 28 d exposure,1.0E+00 cells per mL
same,log reduction of planktonic SRB,[2],did not result in a significant reduction
same,APB per mL,[3]; 24 h exposure,2.5E+02 cells per mL
same,APB per mL,[3]; 7 d exposure,2.5E+02 cells per mL
same,APB per mL,[3]; 28 d exposure,4.5E+02 cells per mL
same,log reduction of APB numbers,[3],0.5 log
same,GHB per mL,[4]; 24 h exposure,4.5E+02 cells per mL
same,GHB per mL,[4]; 7 d exposure,4.5E+03 cells per mL
same,GHB per mL,[4]; 28 d exposure,2.5E+05 cells per mL
same,log reduction of planktonic GHB,[4],2.5 log
"CC1(C)C(=O)N(CO)C(=O)N1CO [DMDM hydantoin, 1,3-Bis(hydroxymethyl)-5,5-dimethylimidazoline-2,4-dione]",SRB per mL,[2]; 24 h exposure,9.5E+04 cells per mL
same,SRB per mL,[2]; 7 d exposure,9.5E+02 cells per mL
same,SRB per mL,[2]; 28 d exposure,4.5E+06 cells per mL
same,log reduction of planktonic SRB,[2],no effect
same,APB per mL,[3]; 24 h exposure,4.5E+02 cells per mL
same,APB per mL,[3]; 7 d exposure,2.5E+02 cells per mL
same,APB per mL,[3]; 28 d exposure,9.5E+04 cells per mL
same,log reduction of APB numbers,[3],no effect
same,GHB per mL,[4]; 24 h exposure,9.5E+03 cells per mL
same,GHB per mL,[4]; 7 d exposure,9.5E+05 cells per mL
same,GHB per mL,[4]; 28 d exposure,2.5E+05 cells per mL
same,log reduction of planktonic GHB,[4],1 log
"CC1CN(CN2COC(C)C2)CO1 (stereo not drawn) [MBMO, N, N′-Methylene bis(5-methyloxazolidine)]",SRB per mL,[2]; 24 h exposure,9.5E+03 cells per mL
same,SRB per mL,[2]; 7 d exposure,4.0E+01 cells per mL
same,SRB per mL,[2]; 28 d exposure,1.0E+00 cells per mL
same,APB per mL,[3]; 24 h exposure,7.5E+02 cells per mL
same,APB per mL,[3]; 7 d exposure,7.5E+02 cells per mL
same,APB per mL,[3]; 28 d exposure,4.5E+01 cells per mL
same,GHB per mL,[4]; 24 h exposure,9.5E+03 cells per mL
same,GHB per mL,[4]; 7 d exposure,4.5E+03 cells per mL
same,GHB per mL,[4]; 28 d exposure,2.5E+02 cells per mL
same,further log reduction of GHB numbers,[4]; after 28 days,2 log
same,log reduction of planktonic GHB,[4],1 log
